Patent US20260176260A1, “DUAL RAF AND TUBULIN INHIBITORS AND METHODS OF USE THEREOF” (Deciphera Pharmaceuticals, LLC, priority 2023, published 2026)
Read-outs that look alike come from different tables or passages of the source.

What was measured:
MiaPaca-2 cells = assay: MiaPaca-2 cell proliferation assay (resazurin); assay type: cell-based; conditions: Homo sapiens, MIA PaCa-2; Table 2, inhibition of cell proliferation; read-out: MiaPaca-2
Protocol: MiaPaca-2 cells (catalog #CRL-1420) are obtained from the American Type Culture Collect (ATTC, Manassas, VA). Briefly, cells were grown in DMVEM supplemented with […] fetal bovine serum (Invitrogen, Carlsbad, CA), 2.5% New Zealand sourced horse serum and 1% Penicillin/Streptomycin/L-Glutamine at 37° C., […], and […]. Cells are expanded until reaching […] at which point they are sub-cultured or harvested for assay use. For assays completed in 96-well plates, a serial dilution of test compound is dispensed into a 96-well black clear bottom plate in triplicate. Three thousand cells are added per well in 200 μL complete growth medium in the 96-well plate. Plates are incubated for 67 to 72 h at 37° C., 5% CO2, and 95% humidity. At the end of the incubation, 40 μL of a […] solution of resazurin (Sigma, St. Louis, MO) in PBS is added to each well of the plate and plates are incubated for an additional 5 to 6 h at 37° C., 5% CO2, and 95% humidity. For 384-well assays, a threefold, 8-point serial dilution of compound was spotted column wise into a 384 well black, clear bottom, tissue culture treated plate using the Beckman Coulter Echo 650. Likewise, a threefold, 8-point serial dilution of cobimetinib was spotted row wise into the 384 well black, clear bottom plate containing compound. DMSO concentration was constant across all wells at 0.4%. Seven hundred fifty cells are added per well in 50 μL complete growth medium in each 384-well plate. Plates are incubated for 67 to 72 h at 37° C., 5% CO2, and 95% humidity. At the end of the incubation, 10 μL of a 440 μM solution of resazurin (Sigma, St. Louis, MO) in PBS is added to each well of the plate and plates are incubated for an additional 4 to 6 h at 37° C., 5% CO2, and 95% humidity. Plates are read on a Synergy2 or equivalent reader (Biotek, Winooski VT) using an excitation of 540 nm and an emission of 600 nm. Data is analyzed using Prism software (Graphpad, San Diego, CA) to calculate IC50 values.

C-Raf kinase = target: T1, C-Raf kinase (Homo sapiens, UniProt P04049, Y340D/Y341D); assay: Biochemical assay for C-Raf (coupled pyruvate kinase/lactate dehydrogenase)
T1 construct: C-Raf residues 306-end; Y340D, Y341D with N-; purchased Sigma
T1 sequence (P04049 307-648 Y340D/Y341D): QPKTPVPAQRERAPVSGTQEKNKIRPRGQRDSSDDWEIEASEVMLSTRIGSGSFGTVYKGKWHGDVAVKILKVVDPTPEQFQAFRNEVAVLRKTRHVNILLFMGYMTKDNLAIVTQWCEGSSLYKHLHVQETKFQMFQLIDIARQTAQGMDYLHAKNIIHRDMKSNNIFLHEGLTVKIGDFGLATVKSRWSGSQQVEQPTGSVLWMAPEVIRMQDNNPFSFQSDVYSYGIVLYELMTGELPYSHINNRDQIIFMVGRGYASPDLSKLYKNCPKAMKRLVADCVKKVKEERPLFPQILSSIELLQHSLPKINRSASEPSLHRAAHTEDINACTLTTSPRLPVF

B-Raf kinase = target: T2, B-Raf kinase (Homo sapiens, UniProt P15056); assay: Biochemical assay for B-Raf (coupled pyruvate kinase/lactate dehydrogenase)
T2 construct: purchased Sigma
T2 sequence (P15056 416-766): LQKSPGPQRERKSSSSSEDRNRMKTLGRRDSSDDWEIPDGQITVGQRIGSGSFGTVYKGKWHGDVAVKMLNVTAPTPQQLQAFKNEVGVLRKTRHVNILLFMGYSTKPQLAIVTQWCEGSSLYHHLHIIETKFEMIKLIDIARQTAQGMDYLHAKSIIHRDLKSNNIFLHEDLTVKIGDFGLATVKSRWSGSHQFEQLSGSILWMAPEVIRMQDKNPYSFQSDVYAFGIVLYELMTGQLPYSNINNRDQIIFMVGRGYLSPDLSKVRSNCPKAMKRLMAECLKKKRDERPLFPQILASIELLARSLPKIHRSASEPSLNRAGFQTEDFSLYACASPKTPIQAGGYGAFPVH

HCT-116 cells = assay: HCT-116 cell proliferation assay (resazurin); assay type: cell-based; conditions: Homo sapiens
Protocol: HCT-116 cells (catalog #CCL-247) are obtained from the American Type Culture Collect (ATCC, Manassas, VA). Briefly, cells are grown in McCoy's 5A supplemented with 10% characterized fetal bovine serum (Invitrogen, Carlsbad, CA) and 1% Penicillin/Streptomycin/L-Glutamine at 37° C., 5% CO2, and 95% humidity. Cells are expanded until reaching 70-95% confluency at which point they are sub-cultured or harvested for assay use. A serial dilution of test compound is dispensed into a 384-well black clear bottom plate in triplicate. 375 cells are added per well in 50 μL complete growth medium in the 384-well plate. Plates are incubated for 67 to 72 h at 37° C., 5% CO2, and 95% humidity. At the end of the incubation, 40 μL of a […] solution of resazurin (Sigma, St. Louis, MO) in PBS is added to each well of the plate and plates are incubated for an additional 4 to 5 h at 37° C., 5% CO2, and 95% humidity. Plates are read on a Synergy2 or equivalent reader (Biotek, Winooski, VT) using an excitation of 540 nm and an emission of 600 nm. Data is analyzed using Prism software (Graphpad, San Diego, CA) to calculate IC50 values.

HPAF-II cells = assay: HPAF-II cell proliferation assay (resazurin); assay type: cell-based; conditions: Homo sapiens
Protocol: (§1) HPAF-II cells (catalog #CRL-1997) are obtained from the American Type Culture Collect (ATCC, Manassas, VA). Briefly, cells are grown in Minimum Essential Media supplemented with 10% characterized fetal bovine serum (Invitrogen, Carlsbad, CA) and 1% Penicillin/Streptomycin/L-Glutamine at 37° C., 5% CO2, and 95% humidity. Cells are expanded until reaching 70-95% confluency at which point they are sub-cultured or harvested for assay use. A serial dilution of test compound is dispensed into a 384-well black clear bottom plate in triplicate. 750 cells are added per well in 50 μL complete growth medium in the 384-well plate. Plates are incubated for 115 to 120 h at 37° C., 5% CO2, and 95% humidity. At the end of the incubation, 40 μL of a […] solution of resazurin (Sigma, St. Louis, MO) in PBS is added to each well of the plate and plates are incubated for an additional 18 to 24 h at 37° C., 5% CO2, and 95% humidity. Plates are read on a Synergy2 or equivalent reader (Biotek, Winooski, VT) using an excitation of 540 nm and an emission of 600 nm. Data is analyzed using Prism software (Graphpad, San Diego, CA) to calculate IC50 values.

Pa16c cells = assay: Pa16c cell proliferation assay (resazurin); assay type: cell-based; conditions: Table 2, inhibition of cell proliferation
Protocol: as §1, with “Pa16c” for “HPAF-II”, “cells” for “cells (catalog #CRL-1997)”, “Dr. Channing Der, University of North Carolina at Chapel Hill.” for “the American Type Culture Collect (ATCC, Manassas, VA).”, “Dulbecco's Modified Eagle Medium” for “Minimum Essential Media”, “67” for “115”, “72” for “120”

[1] = Table 1, inhibition of biochemical activity, read-out: CRAF
[2] = Table 1, inhibition of biochemical activity, read-out: BRAF
[3] = Table 2, inhibition of cell proliferation, read-out: HCT-116
[4] = Table 2, inhibition of cell proliferation, read-out: HPAF-II

| IC50 (MiaPaca-2 cells) [nM] | IC50 (C-Raf kinase; [1]) [nM] | IC50 (B-Raf kinase; [2]) [nM] | IC50 (HCT-116 cells; [3]) [nM] | IC50 (C-Raf kinase; Table 4, read-out: CRAF IC50) [nM] | IC50 (B-Raf kinase; Table 4, read-out: BRAF IC50) [nM] | IC50 (HCT-116 cells; HCT-116, Table 4, read-out: HCT-116 IC50) [nM] | Compound | IC50 (HPAF-II cells; [4]) [nM] | IC50 (Pa16c cells) [nM] | IC50 (HPAF-II cells; HPAF-II, Table 4, read-out: HPAF-II IC50) [nM] |
| --- | --- | --- | --- | --- | --- | --- | --- | --- | --- | --- |
| < 100 | < 100 | < 100 | < 100 |  |  |  | CNC(=O)c1cc(-c2cc(-c3cc(NC(=O)c4cc(C(C)(F)F)cnn4)ccc3C)cc(NCCO)n2)ccn1 [Example 42] | 100 to 500 | 100 to 500 |  |
| 1000 to 10000 | < 100 | < 100 | 500 to 1000 |  |  |  | CNC(=O)c1cc(-c2cncc(-c3cc(NC(=O)c4cc(C(C)(F)F)cnn4)ccc3C)c2)ccn1 [Example 30] | 1000 to 10000 | 1000 to 10000 |  |
| 1000 to 10000 | < 100 | 100 to 500 | 1000 to 10000 |  |  |  | CNC(=O)c1cc(-c2cc(-c3cc(NC(=O)c4cc(C(N)=O)cnn4)ccc3C)cc(OCCO)n2)ccn1 [Example 52, N^3-(3-(6-(2-hydroxyethoxy)-2′-(methylcarbamoyl)-[2,4′-bipyridin]-4-yl)-4-methylphenyl)pyridazine-3,5-dicarboxamide] | 1000 to 10000 |  |  |
| 1000 to 10000 | 100 to 500 | 100 to 500 |  |  |  |  | CNC(=O)c1cc(-c2cncc(-c3cc(NC(=O)c4ccc(C(F)(F)F)nc4)ccc3C)c2)ncn1 [Example 10] |  |  |  |
| 500 to 1000 | 100 to 500 | 1000 to 10000 | 100 to 500 |  |  |  | Cc1ccc(NC(=O)c2ccc(C(F)(F)F)nc2)cc1-c1ccnc(-c2ccnc(C(=O)NC3CC3)c2)c1 [Example 5] |  |  |  |
|  |  |  |  | < 100 | < 100 | 100 to 500 | CNC(=O)c1cc(-c2cc(-c3cc(NC(=O)c4cccc(C(C)(C)C#N)c4)ccc3C)cc(OCCO)n2)ccn1 [reference compound] |  |  | 500 to 1000 |
| 1000 to 10000 | < 100 | < 100 | 500 to 1000 |  |  |  | CNC(=O)c1cc(-c2cc(-c3cc(NC(=O)c4cncc(C(C)(F)F)c4)ccc3C)ccn2)ccn1 [Example 14] | 1000 to 10000 |  |  |

Continued, compound first:

| Compound | IC50 (MiaPaca-2 cells) [nM] | IC50 (C-Raf kinase; [1]) [nM] | IC50 (B-Raf kinase; [2]) [nM] | IC50 (HCT-116 cells; [3]) [nM] | IC50 (C-Raf kinase; Table 4, read-out: CRAF IC50) [nM] | IC50 (B-Raf kinase; Table 4, read-out: BRAF IC50) [nM] | IC50 (HCT-116 cells; HCT-116, Table 4, read-out: HCT-116 IC50) [nM] | IC50 (HPAF-II cells; [4]) [nM] | IC50 (Pa16c cells) [nM] | IC50 (HPAF-II cells; HPAF-II, Table 4, read-out: HPAF-II IC50) [nM] |
| --- | --- | --- | --- | --- | --- | --- | --- | --- | --- | --- |
| CNC(=O)c1cc(-c2cc(NCCO)nc(-c3cc(NC(=O)c4cc(C(F)(F)F)cnn4)ccc3C)n2)ccn1 [Example 33] | 1000 to 10000 | < 100 | 100 to 500 | 1000 to 10000 |  |  |  | 1000 to 10000 | 1000 to 10000 |  |
| CNC(=O)c1cc(-c2cc(-c3cc(NC(=O)c4cncc(C(F)(F)F)c4)ccc3C)cc(C)n2)ccn1 [Example 13] | 1000 to 10000 | < 100 | 100 to 500 | 1000 to 10000 |  |  |  | 1000 to 10000 | 1000 to 10000 |  |
| CNC(=O)c1cc(-c2cc(-c3cc(NC(=O)c4cc(C(F)(F)F)cnn4)ccc3C)cc(N)n2)ccn1 [Example 48] | 500 to 1000 | < 100 | < 100 | 100 to 500 |  |  |  | 100 to 500 | 1000 to 10000 |  |
| CNC(=O)c1cc(-c2cc(-c3cc(NC(=O)c4cc(C(F)(F)F)cnn4)ccc3C)cc(NC)n2)ccn1 [Example 47] | < 100 | < 100 | < 100 | < 100 |  |  |  | < 100 | < 100 |  |
| CNC(=O)c1cc(-c2cc(-c3cc(NC(=O)c4cc(C5CC5)cnn4)ccc3C)cc(N[C@H](C)CO)n2)ccn1 [Example 32] | 100 to 500 | < 100 | < 100 | 100 to 500 |  |  |  | 100 to 500 | 100 to 500 |  |
| CNC(=O)c1cc(-c2cc(-c3cc(NC(=O)c4cc(C#N)cnn4)ccc3C)cc(NCCO)n2)ccn1 [Example 53] | 100 to 500 | < 100 | < 100 | 100 to 500 |  |  |  | 100 to 500 |  |  |
| CNC(=O)c1cc(-c2cc(N)cc(-c3cc(NC(=O)c4cc(C(F)(F)F)cnn4)ccc3C)c2)ccn1 [Example 51] | 500 to 1000 | < 100 | 100 to 500 | 500 to 1000 |  |  |  | 1000 to 10000 |  |  |
| CNC(=O)c1cc(-c2cc(-c3cc(NC(=O)c4cncc(C(C)(F)F)c4)ccc3C)cc(C)n2)ccn1 [Example 15] | 1000 to 10000 | < 100 | 100 to 500 |  |  |  |  |  |  |  |
| CNC(=O)c1cc(-c2cc(-c3cc(NC(=O)c4cc(C#N)cnn4)ccc3C)cc(N[C@H](C)CO)n2)ccn1 [Example 50] | 100 to 500 | < 100 | < 100 | 100 to 500 |  |  |  | 500 to 1000 |  |  |
| Cc1ccc(NC(=O)c2ccc(C(F)(F)F)nc2)cc1-c1cncc(-c2ccnc(C(N)=O)c2)c1 [Example 11] | 1000 to 10000 | 100 to 500 | 500 to 1000 |  |  |  |  |  |  |  |
